Assay results published in US20070243598A1, “NOVEL PSEUDONOCARDIA SP. RMRC PAH4 AND A PROCESS FOR BIOCONVERTING COMPACTIN INTO PRAVASTATIN USING THE SAME” (CHINESE PETROLEUM CORPORATION, priority 2004, published 2007).

System: Pseudonocardia sp. RMRC PAH4
Experiment: Tolerance of Pseudonocardia sp. RMRC PAH4 against compactin sodium
Type: cell-based
Settings: added after 48 hours on shaker in YMG liquid medium, 220 rpm, 28° C.; conversion rate could not exceed 30%
Experimental: The strain was inoculated in the culture medium consisting of casein hydrolysate 0.05-0.2%; yeast extract 0.05-0.2%; soluble starch 0.5-2.0%; KH2PO4 0.01-0.08%; MgSO4.7H2O 0.05-0.2%; Pravastatin sodium 0.005-0.01%; and Bacto agar 2.0%, pH 7.0, and incubated under 28° C. for 7-20 days.
The above inoculum culture was incubated in compactin sodium-containing YMG liquid medium consisting of yeast extract 0.1-1.0%; malto extract 0.1-1.0%; peptone 0.1-1.0%; glucose 0.5-2.0%; cotton seed extract (Pharmamedia) 0.5-0.5%; KH2PO4 0.1-0.5%; Na2HPO4 0.3-0.7%; MgSO4.7H2O 0.01-0.05%; FeSO4.7H2O 0.001-0.01%; MnSO4.H2O 0.001-0.01%; CaCl2 0.001-0.01%; compactin sodium 0.002-0.01%; pH 6.5, on a shaker, at 220 rpm, under 28° C.
After incubating on shaker as described above for 48 hours, 300-3,000 μg/ml of compactin sodium as added and continued the incubation under same conditions. Utilization rate of compactin sodium and conversion rate of Pravastatin sodium were analyzed by HPLC at an interval of 24 hours.

In the case of CC[C@H](C)C(=O)O[C@H]1CCC=C2C=C[C@H](C)[C@H](CCCC[C@@H](O)CC(=O)O)[C@H]21 [compactin sodium], the “amount of compactin sodium added above which growth of the bacteria becomes considerably slow” value is reported as “more than 2,500 μg/ml”.
